This is an account of results in patent publication US12514900B2, “Method to identify responders to osteoarthritis therapeutics” (OrthoTrophix, Inc., priority 2020, dated 2026).

Where no end group is shown, it is not given here.

One data set has as its system human and rat bone cells. The settings on record: human and rat/murine orthologues; cited from earlier work.
For data set [1], the target named is integrin αVβ3 expressed by osteocytes (Homo sapiens, UniProt P05106+P06756). The settings on record: cited from earlier work.
Data set [2] deals with subjects with knee OA. The settings on record: cited from earlier work.
For data set [3], the system named is subjects with bilateral knee osteoarthritis. The settings on record: human, in vivo.
Procedure: Eighteen (18) orthopedic, rheumatologic and family practice centers in the U.S. participated in the study.
On the first dosing day, the randomized subjects were assessed by physical examinations and vital signs. Further, they completed the Knee injury and Osteoarthritis Outcome Score (KOOS), which includes the Western Ontario and McMaster Universities Osteoarthritis Index (WOMAC). The KOOS questionnaire assesses knee-specific activities of daily living, sports and recreation, knee-related quality of life, other symptoms such as stiffness, and knee pain. […] After assessments were completed, subjects received one intra-articular injection in each knee, with each injection prepared from the vial(s) marked for that knee. […] Subjects were monitored for adverse events during the injections and for a few hours after the injections. Vital signs were also monitored after the injections.
On the 7th, 14th, and 21st days after the first dosing, subjects received the second, third, and fourth (last) dosing of the same study materials, respectively. Safety and adverse event assessments were obtained as on the first dosing day.
Subjects returned to their respective study sites at 3, 6 and 12 months after the first dosing day for follow-up evaluations. In addition, the study sites monitored the subject's condition through telephone contact 9 months after the first dosing day. During the 3, 6, and 12 months post-treatment, subjects were evaluated on site with physical examinations, vital signs, serum chemistries, as well as completing patient-reported outcomes including the KOOS. Adverse events and concomitant medications were recorded. MRIs of both knees were obtained during the 6 and 12-month visits.
Data set [4] deals with subjects with knee OA. Conditions: cited from earlier work. The source holds these as a separate data set.

Sequence of integrin αVβ3 expressed by osteocytes (P06756 31-889 limits assumed): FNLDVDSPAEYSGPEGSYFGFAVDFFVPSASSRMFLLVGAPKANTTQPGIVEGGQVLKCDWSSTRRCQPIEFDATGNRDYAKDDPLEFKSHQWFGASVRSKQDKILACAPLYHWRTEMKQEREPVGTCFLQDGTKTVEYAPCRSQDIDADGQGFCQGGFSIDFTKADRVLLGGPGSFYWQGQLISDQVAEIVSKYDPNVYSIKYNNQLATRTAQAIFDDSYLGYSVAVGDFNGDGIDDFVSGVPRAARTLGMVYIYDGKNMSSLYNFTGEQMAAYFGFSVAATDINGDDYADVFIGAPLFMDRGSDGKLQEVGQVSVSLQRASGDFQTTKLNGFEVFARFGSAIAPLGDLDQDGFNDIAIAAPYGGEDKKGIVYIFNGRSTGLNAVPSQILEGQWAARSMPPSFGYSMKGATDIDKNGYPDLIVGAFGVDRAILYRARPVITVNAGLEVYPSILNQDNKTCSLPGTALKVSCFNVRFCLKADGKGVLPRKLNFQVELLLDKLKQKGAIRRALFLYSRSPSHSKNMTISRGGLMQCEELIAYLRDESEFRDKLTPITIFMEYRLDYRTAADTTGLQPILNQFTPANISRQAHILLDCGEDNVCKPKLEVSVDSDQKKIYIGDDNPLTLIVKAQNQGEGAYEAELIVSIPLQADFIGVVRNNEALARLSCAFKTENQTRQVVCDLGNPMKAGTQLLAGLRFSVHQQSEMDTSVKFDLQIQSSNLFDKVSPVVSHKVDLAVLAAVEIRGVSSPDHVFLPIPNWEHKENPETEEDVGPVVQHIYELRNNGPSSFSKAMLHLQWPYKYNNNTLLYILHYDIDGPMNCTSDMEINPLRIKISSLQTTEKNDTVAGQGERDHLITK
Sequence of integrin αVβ3 expressed by osteocytes (P06756 891-1048 limits assumed): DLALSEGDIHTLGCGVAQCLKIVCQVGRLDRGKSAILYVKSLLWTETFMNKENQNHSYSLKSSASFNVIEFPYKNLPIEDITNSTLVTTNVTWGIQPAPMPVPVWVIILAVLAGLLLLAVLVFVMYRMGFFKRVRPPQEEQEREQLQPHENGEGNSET
Sequence of integrin αVβ3 expressed by osteocytes (P05106 27-788): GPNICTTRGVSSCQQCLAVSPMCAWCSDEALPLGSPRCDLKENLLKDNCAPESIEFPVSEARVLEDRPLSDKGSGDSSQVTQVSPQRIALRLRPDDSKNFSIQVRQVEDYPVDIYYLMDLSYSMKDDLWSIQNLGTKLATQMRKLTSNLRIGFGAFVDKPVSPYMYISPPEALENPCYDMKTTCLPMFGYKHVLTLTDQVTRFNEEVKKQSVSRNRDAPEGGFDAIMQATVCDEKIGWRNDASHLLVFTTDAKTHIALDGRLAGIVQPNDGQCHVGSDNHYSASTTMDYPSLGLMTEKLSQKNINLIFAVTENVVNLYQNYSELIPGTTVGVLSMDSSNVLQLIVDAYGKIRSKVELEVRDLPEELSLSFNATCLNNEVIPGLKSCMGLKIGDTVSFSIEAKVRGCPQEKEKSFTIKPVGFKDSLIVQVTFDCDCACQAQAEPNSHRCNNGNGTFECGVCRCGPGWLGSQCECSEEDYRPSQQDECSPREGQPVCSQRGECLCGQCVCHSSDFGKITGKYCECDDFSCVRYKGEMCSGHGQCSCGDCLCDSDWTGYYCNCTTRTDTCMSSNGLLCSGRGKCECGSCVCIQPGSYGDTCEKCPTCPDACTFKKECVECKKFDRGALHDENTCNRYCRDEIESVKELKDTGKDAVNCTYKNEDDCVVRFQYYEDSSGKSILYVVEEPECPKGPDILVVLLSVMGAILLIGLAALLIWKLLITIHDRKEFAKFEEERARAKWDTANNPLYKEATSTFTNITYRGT

As for PDLLVRGDNDVPPFSGDGQHFMH [SEQ ID No: 14], in the data set on human and rat bone cells, the “Biological activities in bone cells of the other species” value is listed as “interchangeably show biological activities in the bone cells of the other species”.

Turning to PDLQERGDNDISPFSGDGQPFKD [SEQ ID No: 12], the “Binding to integrin αVβ3” value in data set [1] is listed as “selectively bind to integrin αVβ3”.

With `O=P(O)(O)C(O)(Cc1cccnc1)P(=O)(O)O` [risedronate], the Effects on pain entry in the data set with subjects with knee OA [2] (largest study, n=2483 (Bingham 2006)) is “favoring placebo over active drug”.

For the molecule `N#Cc1c(N(CC(=O)[O-])CC(=O)[O-])sc(C(=O)[O-])c1CC(=O)[O-].[Sr+2].[Sr+2]` [strontium ranelate], the “Risk of myocardial infarction” value in the data set with subjects with knee OA [2] (human, in vivo) was “increase the risk of myocardial infarction”.

On to TDLQERGDNDISPFSGDGQPFKD [SEQ ID No: 10], for which, in data set [3], the Safety and tolerability result is “safe and well tolerated”; the “Severe adverse events related to the peptide” value is “no severe adverse events”; the Treatment-related adverse events entry is given as “mild or moderate, transient”.

B1: Fibroblast Growth Factor-18 (protein, UniProt O76093 28-207, looked up)
Fibroblast growth factor 18: EENVDFRIHVENQTRARDDVSRKQLRLYQLYSRTSGKHIQVLGRRISARGEDGDKYAQLLVETDTFGSQVRIKGKETEFYLCMNRKGKLVGKPDGTSKECVFIEKVLENNYTALMSAKYSGWYVGFTKKGRPRKGPKTRENQQDVHFMKRYPKGQPELQKPFKYTTVTKRSRRIRPTHPA
notes: growth factor tested for cartilage regeneration in knee OA
For B1, in the data set on subjects with knee OA [4], the “Clinical outcomes such as knee function or pain vs placebo” value is listed as “no significant improvement” and the Tibiofemoral cartilage thickness entry is listed as “small but statistically significant increase”.
